From ChEMBL document CHEMBL4229479, “Synthesis and evaluation of panaxatriol derivatives as Na+, K+-ATPase inhibitors” (Bioorg Med Chem Lett, 2018) come the findings set out here.

The term IC50 denotes the concentration that gives 50% inhibition.

For one series, the target named is Sodium/potassium-transporting ATPase. Description: Inhibition of human Na+/K+-ATPase assessed as reduction in inorganic phosphate release from ATP incubated for 15 mins followed by ATP addition measured over 15 mins in presence of Na+/K+ by colorimetric method.
Conditions: not given
The class given is protein-complex assay.
`CC1(C)CCC[C@](C)([C@H]2CC[C@]3(C)[C@@H]2[C@H](O)C[C@@H]2[C@@]4(C)CC[C@H](OCc5ccc(OC(F)(F)F)cc5)C(C)(C)[C@@H]4C(=O)C[C@]23C)O1`: the IC50 came out at 0.45 µM.

In the case of `CC1(C)CCC[C@](C)([C@H]2CC[C@]3(C)[C@@H]2[C@H](O)C[C@@H]2[C@@](C)(CCC(=O)O)CC(=O)C[C@]23C)O1`, the half-maximal inhibitory concentration (IC50) amounted to 0.54 µM.

As for `CC1(C)CCC[C@](C)([C@H]2CC[C@]3(C)[C@@H]2[C@H](OCc2ccccc2)C[C@@H]2[C@@]4(C)CCC(=O)C(C)(C)[C@@H]4[C@@H](OCc4ccccc4)C[C@]23C)O1`, the concentration for half-maximal inhibition (IC50) came to 0.87 µM.

Turning to `CC1(C)CCC[C@](C)([C@H]2CC[C@]3(C)[C@@H]2[C@H](O)C[C@@H]2[C@@]4(C)CCC(=O)C(C)(C)[C@@H]4[C@@H](O)C[C@]23C)O1`, the IC50 was found to be 1.14 µM.

As for `CC1(C)CCC[C@](C)([C@H]2CC[C@]3(C)[C@@H]2[C@H](O)C[C@@H]2[C@@]4(C)Cc5c([nH]c6ccc(OC(F)(F)F)cc56)C(C)(C)[C@@H]4C(=O)C[C@]23C)O1`, the IC50 stood at 0.36 µM.

`CC1(C)CCC[C@](C)([C@H]2CC[C@]3(C)[C@@H]2[C@H](O)C[C@@H]2[C@@]4(C)CC[C@H](Oc5noc(=O)[nH]5)C(C)(C)[C@@H]4C(=O)C[C@]23C)O1`: the IC50 is 0.96 µM.

As for `CCOC(=O)NC(=S)O[C@H]1CC[C@]2(C)[C@H]3C[C@@H](O)[C@@H]4[C@@H]([C@@]5(C)CCCC(C)(C)O5)CC[C@@]4(C)[C@]3(C)CC(=O)[C@H]2C1(C)C`, the half-inhibitory concentration (IC50) came to 1.38 µM.

With `CC1(C)CCC[C@](C)([C@H]2CC[C@]3(C)[C@@H]2[C@H](O)C[C@@H]2[C@@]4(C)CCC(=O)OC(C)(C)[C@@H]4C(=O)C[C@]23C)O1`, the IC50 turned out to be 1.18 µM.

As to `CC1(C)CCC[C@](C)([C@H]2CC[C@]3(C)[C@@H]2[C@H](O)C[C@@H]2[C@@]4(C)Cc5c([nH]c6ccc(F)cc56)C(C)(C)[C@@H]4C(=O)C[C@]23C)O1`, the 50% inhibitory concentration (IC50) came to 0.91 µM.

In the case of `CC1(C)CCC[C@](C)([C@H]2CC[C@]3(C)[C@@H]2[C@H](O)C[C@@H]2[C@@]4(C)CCC(=O)C(C)(C)[C@@H]4C(=O)C[C@]23C)O1`, the IC50 was 0.81 µM.

Take `CC1(C)CCC[C@](C)([C@H]2CC[C@]3(C)[C@@H]2[C@H](O)C[C@@H]2[C@@]4(C)Cc5c([nH]c6ccccc56)C(C)(C)[C@@H]4C(=O)C[C@]23C)O1`: the 50% inhibitory concentration (IC50) was 0.77 µM.

Regarding `CC1(C)CCC[C@](C)([C@H]2CC[C@]3(C)[C@@H]2C(=O)C[C@@H]2[C@@]4(C)CCC(=O)C(C)(C)[C@@H]4[C@@H](O)C[C@]23C)O1`, the IC50 was found to be 0.7 µM.

On to `COC(=O)CC[C@]1(C)[C@H]2C[C@@H](O)[C@@H]3[C@@H]([C@@]4(C)CCCC(C)(C)O4)CC[C@@]3(C)[C@]2(C)CC(=O)[C@H]1C(C)(C)O`, for which the IC50 turned out to be 0.26 µM.

As for `C=CCO[C@H]1CC[C@]2(C)[C@H]3C[C@@H](O)[C@@H]4[C@@H]([C@@]5(C)CCCC(C)(C)O5)CC[C@@]4(C)[C@]3(C)CC(=O)[C@H]2C1(C)C`, the IC50 turned out to be 1.05 µM.

Regarding `CC1(C)CCC[C@](C)([C@H]2CC[C@]3(C)[C@@H]2C(=O)C[C@@H]2[C@@]4(C)CCC(=O)OC(C)(C)[C@@H]4C(=O)C[C@]23C)O1`, the 50% inhibitory concentration (IC50) was 1.13 µM.

For the compound `CC1(C)CCC[C@](C)([C@H]2CC[C@]3(C)[C@@H]2C(=O)C[C@@H]2[C@@]4(C)CCC(=O)OC(C)(C)[C@@H]4[C@@H](O)C[C@]23C)O1`, the IC50 came to 1.23 µM.

For the compound `C=CCO[C@H]1C[C@]2(C)[C@H](C[C@@H](OCC=C)[C@@H]3[C@@H]([C@@]4(C)CCCC(C)(C)O4)CC[C@]32C)[C@@]2(C)CCC(=O)C(C)(C)[C@H]12`, the IC50 was 0.75 µM.

In the case of `CCO[C@H]1CC[C@]2(C)[C@H]3C[C@@H](O)[C@@H]4[C@@H]([C@@]5(C)CCCC(C)(C)O5)CC[C@@]4(C)[C@]3(C)CC(=O)[C@H]2C1(C)C`, the IC50 amounted to 1.14 µM.

Consider `COC(=O)CC[C@@]1(C)CC(=O)C[C@]2(C)[C@@H]1C[C@@H](O)[C@@H]1[C@@H]([C@@]3(C)CCCC(C)(C)O3)CC[C@]12C`, for which the half-inhibitory concentration (IC50) was found to be 0.41 µM.

Regarding `C=C(C)[C@@H]1C(=O)C[C@]2(C)[C@H](C[C@@H](O)[C@@H]3[C@@H]([C@@]4(C)CCCC(C)(C)O4)CC[C@]32C)[C@@]1(C)CCC(=O)OC`, the IC50 worked out at 1.09 µM.

For the compound `CC1(C)CCC[C@](C)([C@H]2CC[C@]3(C)[C@@H]2[C@H](O)C[C@@H]2[C@@]4(C)CCC(=O)C(C)(C)[C@@H]4[C@@H](OCc4ccccc4)C[C@]23C)O1`, the IC50 was found to be 0.33 µM.

As to `CC1(C)CCC[C@](C)([C@H]2CC[C@]3(C)[C@@H]2[C@H](O)C[C@@H]2[C@@]4(C)CC[C@H](O)C(C)(C)[C@@H]4[C@@H](O)C[C@]23C)O1` [PANAXATRIOL], the IC50 was 1.09 µM.

Regarding `CC1(C)CCC[C@](C)([C@H]2CC[C@]3(C)[C@@H]2[C@H](O)C[C@@H]2[C@@]4(C)CC[C@H](O)C(C)(C)[C@@H]4C(=O)C[C@]23C)O1`, the half-inhibitory concentration (IC50) was 1.18 µM.

Turning to `CC1(C)CCC[C@](C)([C@H]2CC[C@]3(C)[C@@H]2C(=O)C[C@@H]2[C@@]4(C)CCC(=O)C(C)(C)[C@@H]4C(=O)C[C@]23C)O1`, the IC50 is 0.76 µM.

For the compound `C=CCO[C@H]1C[C@]2(C)[C@H](C[C@@H](O)[C@@H]3[C@@H]([C@@]4(C)CCCC(C)(C)O4)CC[C@]32C)[C@@]2(C)CCC(=O)C(C)(C)[C@H]12`, the IC50 was found to be 0.91 µM.

As to `CC1(C)CCC[C@](C)([C@H]2CC[C@]3(C)[C@@H]2[C@H](O)C[C@@H]2[C@@]4(C)CC[C@H](OCc5ccccc5)C(C)(C)[C@@H]4C(=O)C[C@]23C)O1`, the IC50 amounted to 0.3 µM.

In the case of `CC1(C)CCC[C@](C)([C@H]2CC[C@]3(C)[C@@H]2[C@H](O)C[C@@H]2[C@@]4(C)CCC(=O)NC(C)(C)[C@@H]4C(=O)C[C@]23C)O1`, the IC50 worked out at 0.41 µM.

Tested on in another series: not listed separately
Kind of series: Arrhythmogenic activity in Langendorff-perfused heart rat model at 0.26 umol/L administered for 30 mins following 60 mins perfusion with K-H solution. The class given is toxicity, tissue-based. Conditions: 0.5 h, 0.26 µM.
The compound `C[C@H]1O[C@@H](O[C@H]2[C@@H](O)C[C@H](O[C@H]3[C@@H](O)C[C@H](O[C@H]4CC[C@@]5(C)[C@H](CC[C@@H]6[C@@H]5C[C@@H](O)[C@]5(C)[C@@H](C7=CC(=O)OC7)CC[C@]65O)C4)O[C@@H]3C)O[C@@H]2C)C[C@H](O)[C@@H]1O` [DIGOXIN] came in with an Activity of 50%.

In turn, `COC(=O)CC[C@]1(C)[C@H]2C[C@@H](O)[C@@H]3[C@@H]([C@@]4(C)CCCC(C)(C)O4)CC[C@@]3(C)[C@]2(C)CC(=O)[C@H]1C(C)(C)O` yielded an Activity of 0%.
